{"source": "patent US20240277744A1", "about": "“TREATMENT OF CHEMORESISTANT CANCER CELLS” (Cornell University, priority 2023, published 2024)", "format_in_all_cases": "cell-based", "key": {"SW1990 cells": {"tested_on": "SW1990 cells", "test": "Cell viability (DAPI nuclei count, high content imaging)", "conditions": "Homo sapiens, SW1990, 72 h, read-out: IC50, viability", "description": "Cell viability, colony formation, sphere formation and growth curve. To quantify viability, cells were plated into 96-well plates (6000/well) one night before treatment. […] After fixation, cell nuclei were stained with DAPI (Invitrogen). Plates were analyzed using MetaXpress High Content Image Acquisition and Analysis System (Molecular Devices)."}, "SW1990GR cells": {"tested_on": "SW1990GR cells", "test": "Annexin V/DAPI apoptosis by flow cytometry", "conditions": "100 nM or 200 nM CYM, one day; TRA-1-81+ and TRA-1-81− subpopulations", "description": "Flow cytometry. TRA-1-60 PerCP-efluor710 (eBioscience, 1:50) and TRA-1-81 PE (eBioscience, 1:100) were used. Cells were blocked with 5% FBS plus mouse IgM isotype control antibody (eBioscience, 1:100) at room temperature for 15 min, then stained on ice for 30 min. Stained cells were resuspended in PBS containing 300 nM DAPI and proceeded to analysis or sorting. Cell apoptosis was analyzed with FITC-AnnexinV labeling reagent (BD). Flow cytometry analysis was carried out on BD FACS Calibur with FlowJo 9.8 software. Sorting was performed with FACSVantage SE (Becton Dickinson)."}, "HPAF-II cells": {"tested_on": "HPAF-II cells", "test": "Cell viability with GEM and CYM", "conditions": "50 nM GEM and 25 nM CYM, 5 days", "description": "(§1) Cell viability, colony formation, sphere formation and growth curve. To quantify viability, cells were plated into 96-well plates (6000/well) one night before treatment. Drugs were then added in indicated dose for 5 days. After fixation, cell nuclei were stained with DAPI (Invitrogen). Plates were analyzed using MetaXpress High Content Image Acquisition and Analysis System (Molecular Devices)."}, "HT-29 cells": {"tested_on": "HT-29 cells", "test": "Cell viability with GEM and CYM", "conditions": "HT-29, 50 nM GEM and 25 nM CYM, 5 days", "description": "as §1"}, "TRA-1-60+ SW1990GR cells": {"tested_on": "TRA-1-60+ SW1990GR cells", "test": "High content screen / immunofluorescent staining of TRA-1-60+ cells", "description": "Immunofluorescent staining. Primary antibodies were TRA-1-60 antibody (BD, 1:200), biotin conjugated TRA-1-60 antibody (eBioscience, 1:200). Secondary antibodies were donkey anti-mouse Alexa-efluor594 (Life technologies, 1:500) or streptavidin conjugated Alexa Fluor® 594 (Life technologies, 1:200).\nCells were fixed with 10% formalin for 20 min at room temperature. After 1 hour blocking in PBS with 5% horse serum and 0.3% triton-X100, primary antibodies were added to cells and incubated overnight at 4° C. Secondary antibody incubation was 1.5 hours at room temperature.\nChemical library screening. The Prestwick library of FDA approved drugs (˜1280 chemicals) plus a collection of drugs in clinical trials was used for the screen on SW1990GR cells.\nFor screening, SW1990GR cells were plated in 384-well plates (5000 cells/well). After overnight incubation, chemicals were added at 1 μM or 10 μM in duplicate. After 5 days of treatment, plates were stained with TRA-1-60 antibody and analyzed with MetaXpress High Content Image Acquisition and Analysis System (Molecular Devices). Wells treated with DMSO were set as control. The reduction was calculated by subtracting the percentage of TRA-1-60^+ cells in the chemical-treated wells from that of control wells. Standard deviation of TRA-1-60^+ percentage in control wells was calculated and 3-fold of this value was taken as threshold to pick up the primary hit."}}, "data": [{"molecule": "CO[C@H]1C[C@H](O[C@H]2CC[C@]3(C=O)[C@H]4CC[C@]5(C)[C@@H](C6=CC(=O)OC6)CC[C@]5(O)[C@@H]4CC[C@]3(O)C2)O[C@H](C)[C@H]1O", "note": "[CYM, Cymarin]", "values": [{"measurement": "IC50", "setting": "SW1990 cells", "value": "33.8 ± 2.6", "unit": "nM"}, {"measurement": "percentage of Annexin V+/DAPI− (early) and Annexin V+/DAPI+ (late) apoptotic cells", "setting": "SW1990GR cells", "value": "increased"}, {"measurement": "survival of GEM-resistant cells", "setting": "HPAF-II cells", "value": "significantly decreased the survival"}, {"measurement": "survival of GEM-resistant cells", "setting": "HT-29 cells", "value": "significantly decreased the survival"}, {"measurement": "percentage of TRA-1-60+ cells after treatment", "setting": "TRA-1-60+ SW1990GR cells; 25 nM CYM, 5 days, SW1990GR, from ~18%", "value": "less than 5%"}, {"measurement": "relative potency in TRA-1-60 inhibition", "setting": "TRA-1-60+ SW1990GR cells; SW1990GR", "value": "higher potency than Ouabain"}, {"measurement": "validation of primary hit", "setting": "TRA-1-60+ SW1990GR cells; SW1990GR", "value": "able to be validated"}, {"measurement": "IC50", "setting": "TRA-1-60+ SW1990GR cells; read-out: IC50, decrease of percentage of TRA-1-60+ cells", "value": "15.2 ± 4.3", "unit": "nM"}]}]}
